The target of this experiment is T1, recombinant guanylate cyclase reporter cell line (Rattus norvegicus, UniProt P19686+P20595).
T1 construct: expressed in transfected cells
T1 sequence (P20595 1-619): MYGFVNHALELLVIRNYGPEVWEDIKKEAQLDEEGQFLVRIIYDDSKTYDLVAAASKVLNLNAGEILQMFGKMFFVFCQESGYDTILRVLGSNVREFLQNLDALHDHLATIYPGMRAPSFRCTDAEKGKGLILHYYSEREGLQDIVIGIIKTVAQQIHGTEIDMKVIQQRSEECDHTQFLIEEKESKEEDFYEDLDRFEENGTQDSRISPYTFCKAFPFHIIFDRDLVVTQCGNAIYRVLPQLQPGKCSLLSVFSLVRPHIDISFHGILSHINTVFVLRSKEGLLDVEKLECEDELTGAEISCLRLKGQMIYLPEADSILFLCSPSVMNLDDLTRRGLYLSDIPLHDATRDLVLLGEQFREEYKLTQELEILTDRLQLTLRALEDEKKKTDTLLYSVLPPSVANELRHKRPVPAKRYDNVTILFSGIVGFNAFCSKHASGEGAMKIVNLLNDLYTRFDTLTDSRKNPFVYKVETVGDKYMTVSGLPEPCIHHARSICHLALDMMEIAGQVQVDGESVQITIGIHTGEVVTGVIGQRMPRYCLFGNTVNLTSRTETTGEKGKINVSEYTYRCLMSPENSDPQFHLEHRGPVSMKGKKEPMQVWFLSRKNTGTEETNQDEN
T1 sequence (P19686 1-690): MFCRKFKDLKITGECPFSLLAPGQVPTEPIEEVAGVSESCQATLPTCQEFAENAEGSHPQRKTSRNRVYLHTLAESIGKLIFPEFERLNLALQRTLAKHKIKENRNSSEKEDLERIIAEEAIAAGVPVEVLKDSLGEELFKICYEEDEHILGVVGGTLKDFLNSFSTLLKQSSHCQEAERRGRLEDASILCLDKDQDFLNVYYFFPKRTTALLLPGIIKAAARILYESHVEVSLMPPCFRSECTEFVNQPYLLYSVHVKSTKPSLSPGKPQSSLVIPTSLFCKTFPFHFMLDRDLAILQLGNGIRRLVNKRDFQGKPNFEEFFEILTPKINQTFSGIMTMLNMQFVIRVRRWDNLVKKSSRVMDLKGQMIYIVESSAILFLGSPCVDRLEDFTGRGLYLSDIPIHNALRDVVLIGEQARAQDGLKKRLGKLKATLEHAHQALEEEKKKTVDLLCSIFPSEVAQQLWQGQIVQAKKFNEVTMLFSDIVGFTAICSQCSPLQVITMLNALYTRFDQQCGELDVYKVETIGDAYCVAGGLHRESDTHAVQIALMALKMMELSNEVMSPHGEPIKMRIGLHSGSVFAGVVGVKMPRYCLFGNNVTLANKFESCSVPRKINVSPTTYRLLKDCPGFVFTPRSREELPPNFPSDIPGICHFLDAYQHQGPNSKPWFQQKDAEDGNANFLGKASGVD
Kind of experiment: B-2. Action on recombinant guanylate cyclase reporter cell line. The conditions noted are these: MEC = minimal effective concentration; in some cases mean values from individual determinations. It is filed as cell-based. As for the experimental part:
B-2. Action on Recombinant Guanylate Cyclase Reporter Cell Line
The cellular action of the compounds according to the invention is determined on a recombinant guanylate cyclase reporter cell line, as described in F. Wunder et al., Anal. Biochem. 339, 104-112 (2005).
Representative MEC values (MEC=minimal effective concentration) for the compounds according to the invention are shown in the following table (in some cases as mean values obtained from individual determinations): […]

SMILES strings stand for the structures. Counter-ions that a name gives are not always drawn.

`Cc1cc(OCc2c(F)cccc2F)c2nc(C)c(C(=O)NC3CCC(N)C3)n2c1` (mixture of isomers) [Example 308, N-(3-aminocyclopentyl)-8-[(2,6-difluorobenzyl)oxy]-2,6-dimethylimidazo[1,2-a]pyridine-3-carboxamide (Stereoisomer Mixture)]: the MEC is 0.20 µM.

With `Cc1cc(OCc2c(F)cccc2F)c2nc(C)c(C(=O)NC3CNCC3C(F)(F)F)n2c1` (mixture of isomers) [Example 313, 8-[(2,6-Difluorobenzyl)oxy]-2,6-dimethyl-N-[4-(trifluoromethyl)pyrrolidin-3-yl]imidazo[1,2-a]pyridine-3-carboxamide (Mixture of Stereoisomers)], the MEC was 0.30 µM.

Regarding `Cc1cc(OCc2c(F)cccc2F)c2nc(C)c(C(=O)NC3CC(N)C3)n2c1` (mixture of isomers) [Example 334, N-(3-aminocyclobutyl)-8-[(2,6-difluorobenzyl)oxy]-2,6-dimethylimidazo[1,2-a]pyridine-3-carboxamide (cis/trans Mixture)], the MEC stood at 1.00 µM.

With `Cc1cc(OCc2c(F)cccc2F)c2nc(C)c(C(=O)NC3CC(C)(C)C3N)n2c1` (mixture of isomers) [Example 358, N-(2-amino-3,3-dimethylcyclobutyl)-8-[(2,6-difluorobenzyl)oxy]-2,6-dimethylimidazo[1,2-a]pyridine-3-carboxamide Formate (Isomer Mixture)], the MEC came out at 0.30 µM.

As for `Cc1nc2c(OCc3c(F)cccc3F)cccn2c1C(=O)NC(CN)CC(F)(F)F` (racemic) [Example 2, rac-N-(1-Amino-4,4,4-trifluorobutan-2-yl)-8-[(2,6-difluorobenzyl)oxy]-2-methylimidazo[1,2-a]-pyridine-3-carboxamide], the MEC came to 0.65 µM.

In the case of `Cc1nc2c(OCc3c(F)cccc3F)cccn2c1C(=O)NC(CN)CC(C(F)(F)F)C(F)(F)F` (racemic) [Example 5, rac-N-[1-amino-5,5,5-trifluoro-4-(trifluoromethyl)pentan-2-yl]-8-[(2,6-difluorobenzyl)oxy]-2-methylimidazo[1,2-a]-pyridine-3-carboxamide trifluoroacetate], the MEC worked out at 1.00 µM.

In the case of `Cc1nc2c(OCc3c(F)cccc3F)cccn2c1C(=O)NC(CN)c1ccc(F)cc1` (racemic) [Example 9, rac-N-[2-Amino-1-(4-fluorophenyl)ethyl]-8-[(2,6-difluorobenzyl)oxy]-2-methylimidazo[1,2-a]-pyridine-3-carboxamide], the MEC was 0.30 µM.

For `Cc1nc2c(OCc3c(F)cccc3F)cccn2c1C(=O)NC(CN)c1ccc(F)c(F)c1` (racemic) [Example 11, rac-N-[2-Amino-1-(3,4-difluorophenyl)ethyl]-8-[(2,6-difluorobenzyl)oxy]-2-methylimidazo[1,2-a]pyridine-3-carboxamide], the MEC was 0.30 µM.

As for `Cc1nc2c(OCc3c(F)cccc3F)cccn2c1C(=O)NC(CN)c1ccc(Cl)cc1` (racemic) [Example 14, rac-N-[2-Amino-1-(4-chlorophenyl)ethyl]-8-[(2,6-difluorobenzyl)oxy]-2-methylimidazo[1,2-a]-pyridine-3-carboxamide Dihydrochloride], the MEC came out at 1.00 µM.

On to `Cc1nc2c(OCc3c(F)cccc3F)cccn2c1C(=O)NC(CN)c1ccccc1` (racemic) [Example 16, rac-N-(2-Amino-1-phenylethyl)-8-[(2,6-difluorobenzyl)oxy]-2-methylimidazo[1,2-a]pyridine-3-carboxamide Dihydrochloride], for which the MEC turned out to be 0.30 µM.

On to `Cc1nc2c(OCc3c(F)cccc3F)cccn2c1C(=O)NC(C)CN` (racemic) [Example 17, rac-N-(1-aminopropan-2-yl)-8-[(2,6-difluorobenzyl)oxy]-2-methylimidazo[1,2-a]-pyridine-3-carboxamide dihydrochloride], for which the MEC was determined as 1.00 µM.

Consider `Cc1nc2c(OCc3c(F)cccc3F)cc(Cl)cn2c1C(=O)NCC(C)N` (racemic) [Example 23, rac-N-(2-aminopropyl)-6-chloro-8-[(2,6-difluorobenzyl)oxy]-2-methylimidazo[1,2-a]-pyridine-3-carboxamide], for which the MEC was determined as 0.30 µM.

Consider `Cc1nc2c(OCc3c(F)cccc3F)cccn2c1C(=O)NC1CNc2ccccc21` (racemic) [Example 28, rac-8-[(2,6-difluorobenzyl)oxy]-N-(2,3-dihydro-1H-indol-3-yl)-2-methylimidazo[1,2-a] pyridine-3-carboxamide], for which the MEC is 0.30 µM.

Consider `Cc1nc2c(OCc3c(F)cccc3F)cccn2c1C(=O)NCC(C)N` (racemic) [Example 34, rac-N-(2-aminopropyl)-8-[(2,6-difluorobenzyl)-oxy]-2-methylimidazo[1,2-a]pyridine-3-carboxamide dihydrochloride], for which the MEC was determined as 1.00 µM.

For `Cc1nc2c(OCC3CCCCC3)cccn2c1C(=O)NC(CN)c1ccc(Cl)cc1` (racemic) [Example 43, rac-N-[2-Amino-1-(4-chlorophenyl)ethyl]-8-(cyclohexylmethoxy)-2-methylimidazo[1,2-a]-pyridine-3-carboxamide], the MEC amounted to 1.00 µM.

With `Cc1nc2c(OCC3CCCCC3)cccn2c1C(=O)NC(CN)c1ccccc1` (racemic) [Example 44, rac-N-(2-Amino-1-phenylethyl)-8-(cyclohexylmethoxy)-2-methylimidazo[1,2-a]pyridine-3-carboxamide], the MEC is 0.30 µM.

Turning to `Cc1nc2c(OCC3CCCCC3)cccn2c1C(=O)NC(CN)c1ccc(F)c(F)c1` (racemic) [Example 46, rac-N-[2-Amino-1-(3,4-difluorophenyl)ethyl]-8-(cyclohexylmethoxy)-2-methylimidazo[1,2-a]-pyridine-3-carboxamide], the MEC was found to be 1.00 µM.

Regarding `Cc1nc2c(OCc3c(F)cccc3F)cc(Cl)cn2c1C(=O)NC1CNc2ccccc21` (racemic) [Example 49, rac-6-Chloro-8-[(2,6-difluorobenzyl)oxy]-N-(2,3-dihydro-1H-indol-3-yl)-2-methylimidazo[1,2-a]-pyridine-3-carboxamide], the MEC was found to be 0.30 µM.

`Cc1nc2c(OCc3c(F)cccc3F)cccn2c1C(=O)NC1CCNc2ccccc21` (racemic) [Example 50, rac-8-[(2,6-Difluorobenzyl)oxy]-2-methyl-N-(1,2,3,4-tetrahydroquinolin-4-yl)imidazo[1,2-a]-pyridine-3-carboxamide]: the MEC turned out to be 0.03 µM.

Turning to `Cc1nc2c(OCc3c(F)cccc3F)cccn2c1C(=O)NC(CN)COc1ccc(F)cc1` (racemic) [Example 58, rac-N-[1-amino-3-(4-fluorophenoxy)propan-2-yl]-8-[(2,6-difluorobenzyl)oxy]-2-methylimidazo[1,2-a]pyridine-3-carboxamide], the MEC was found to be 1.00 µM.

Regarding `Cc1nc2c(OCc3c(F)cccc3F)cccn2c1C(=O)NC(CN)COc1ccccc1` (racemic) [Example 59, rac-N-(1-amino-3-phenoxypropan-2-yl)-8-[(2,6-difluorobenzyl)oxy]-2-methylimidazo[1,2-a]-pyridine-3-carboxamide dihydrochloride], the MEC came out at 3.00 µM.

Consider `Cc1nc2c(OCc3c(F)cccc3F)cccn2c1C(=O)NC(CN)COC(C)C` (racemic) [Example 63, rac-N-(1-Amino-3-isopropoxypropan-2-yl)-8-[(2,6-difluorobenzyl)oxy]-2-methylimidazo[1,2-a]-pyridine-3-carboxamide], for which the MEC worked out at 0.30 µM.

Turning to `Cc1nc2c(OCc3c(F)cccc3F)cccn2c1C(=O)NC1CNc2ccccc2C1` (racemic) [Example 75, rac-8-[(2,6-Difluorobenzyl)oxy]-2-methyl-N-(1,2,3,4-tetrahydroquinolin-3-yl)imidazo[1,2-a]-pyridine-3-carboxamide], the MEC stood at 1.00 µM.

The values are drawn from patent US9624214B2, “Amino-substituted imidazo[1,2-a]pyridinecarboxamides and their use” (BAYER PHARMA AKTIENGESELLSCHAFT, priority 2012, dated 2017).
